According to patent US10603335B2, “Cancer treatment combination compositions, methods and uses” (Board of Supervisors of Louisiana State University and …, priority 2016, dated 2020):

What was measured:
Panc-1 cells spheroids = assay: 3D spheroid growth (IncuCyte ZOOM), Panc-1; assay type: cell-based
Description: A protocol that enables the growth of identical size single cancer cell spheroids in Matrigel in 96 well plates has been developed.
(§1) Panc-1 and Mia-Paca-2 cells were grown in 10% FBS DMEM. Cells were collected after trypsinization and resuspended in phenol-red free DMEM with 10% FBS. Cells were labeled with CellTracker Red (Life Techmologies) for 5 minutes. After labeling cells were washed with PBS and transfer into 96-well Corning 7007 ULA round bottom plates at 1,000 cells/well in 100 μl phenol-red free media with 10% FBS and 5% Matrigel. […] Spheroids were grown at 37° C. and 5% CO2 in IncuCyte ZOOM (Essen Bioscience). Images were acquired every 4 h for a period of 120 h post-treatment and software analysis was design to identify the red object in the well. The data were expressed as fold increase in spheroids size at the end of the treatment using the “average red object area in the well” as determined by the IncuCyte software analysis. Reproducibility was confirmed in three independent experiments. Spheroids grew at a uniform rate (FIG. 1).

AsPC-1 spheroids = assay: 3D spheroid growth (IncuCyte ZOOM), AsPC-1; assay type: cell-based; details: gemcitabine 0.5, 1.0, 5.0 μM, LHRH-curcumin 10, 20 μM, 5 days
Description: as §1
Panc-1, Mia-Paca-2 and AsPC-1 spheroids were formed in 96-well round bottom plates as described. […] Media alone was used as control. The spheroids were grown for 5 days before quantification. Both gemcitabine and LHRH-curcumin were diluted in water.

[1] = system: cleaved PARP, XIAP and cIAP2 in MiaPaca-2 cells; assay: Western blot of apoptosis markers and inhibitors of apoptosis, MiaPaca-2; assay type: cell-based, human; details: for apoptosis marker cleaved PARP: 24 h post-treatment, LHRH-curcumin 10-100 uM, gemcitabine 1-20 uM
Description: (§2) Pancreatic cells were collected after trypsinization and seeded in 12-well plates for 24 h before treatments. Treatments were performed as described in the Figure legends. Following treatment, whole cell lysates were collected in Laemmli buffer and analyzed by Western blot. The following primary antibodies were used: XIAP, c-IAP2, cleaved PARP, Caspase-3 (all from Cell Signaling), actin (Santa Cruz) and LHRHR (Abcam).
(§3) Western blot analysis. Actin, GAPDH and Ponceau staining were used as loading controls. Gemcitabine was diluted in water. Curcumin and LHRH-curcumin were diluted in DMSO. Cells were treated as follows:
(§4) Western blot analysis. Actin, GAPDH and Ponceau staining were used as loading controls. Gemcitabine was diluted in water. Curcumin and LHRH-curcumin were diluted in DMSO. The cells were treated as follows:
(§5) Western blot analysis. Actin was used as loading control. Both gemcitabine and LHRH-curcumin were diluted in water.

[2] = system: cleaved PARP, XIAP and cIAP2 in Panc-1 cells; assay: Western blot of apoptosis markers and inhibitors of apoptosis, Panc-1; assay type: cell-based; details: for apoptosis marker cleaved PARP: 24 h post-treatment, LHRH-curcumin 10-100 uM, gemcitabine 1-20 uM
Description: as §2, §3, §4, §5

[3] = system: cleaved PARP, XIAP and cIAP2 in AsPC-1 cells; assay: Western blot of apoptosis markers and inhibitors of apoptosis, AsPC-1; assay type: cell-based; details: for XIAP and c-IAP2 protein levels: 24 h; for apoptosis marker cleaved PARP: 24 h post-treatment, LHRH-curcumin 10-100 uM, gemcitabine 1-20 uM
Description: as §2, §3
Western blot analysis. Actin, GAPDH and Ponceau staining were used as loading controls. Gemcitabine was diluted in water. Curcumin and LHRH-curcumin were diluted in DMSO.

[4] = Body weight of tumor-bearing mice during treatment; details: IP
Description: Male SCID/bg mice (5 weeks old; Taconic Biosciences, NY) were housed in the standard mouse Plexiglas cages in a room maintained at constant temperature and humidity under a 12 h light and darkness cycle. The experimental protocol was reviewed and approved by the Institutional Animal Care and Use Committee at the LSUHSC Shreveport.
The vehicle treated group received an equivalent amount of PBS. Tumor volumes were measured with calipers once a week and body weights of mice were measured once a week. Tumor volumes were calculated by the formula: V(mm3)=(length×width*2)/2, in which width was the shortest measurement in millimeters. Mice were necropsied 10 days after the last treatment for the low dose treatment (day 35 after the randomization and day 55 from the tumor cell implantation) or 2 days after the last treatment for high dose treatment (day 28 after the randomization and 48 from the tumor cell implantation). Tumors were dissected, weighed and photographed.

PATX113 tissue slices = assay: Live Tissue Sensitivity Assay (LTSA), PATX113; assay type: cell-based; details: 72 hours
Description: (§6) Animal experiment protocol was reviewed and approved by The University of Texas MD Anderson Cancer Center (Houston, Tex.) institutional review board and in accordance with the Guidelines for the Care and Use of Laboratory Animals published by the National Institutes of Health. PDXs were grown from cryopreserved early passages of PDXs in nude mice as described in previous publications (Kim M P, et al, Nat Protoc 2009; 4(11): 1670-80). Briefly, tumor samples stored in CryoStor™ CS10 storage medium were recovered and cut into about 2 mm3 fragments, soaked in Matrigel, and implanted into the subcutaneous space of Balb/c nude mice (5 mice/PDX). Tumors were harvested when they reach 1.5 cm in diameter for generating tissue slices for drug testing with quadruplicates.
(§7) About 100 tissue slices were produced from 1 tumorgraft with tissue slicer and arrayed in 96-well plates with previously established method (Roife D, et al, Clin Cancer Res 2016). […] Same volume of medium with 0.1% DMSO was added into control wells. After 72 hours, tissue viabilities were measured with PrestoBlue method. Viability inhibition will be calculated through normalization of viabilities of tissue slices treated with inhibitor against the viability of control (DMSO treated) slices. Inhibition of viability was further analyzed with t-test. […]

PATX193 tissue slices = assay: Live Tissue Sensitivity Assay (LTSA), PATX193; assay type: cell-based; details: 72 hours
Description: as §6, §7

PATX112 tissue slices = assay: Live Tissue Sensitivity Assay (LTSA), PATX112; assay type: cell-based; details: 72 hours
Description: as §6, §7

PATX176 tissue slices = assay: Live Tissue Sensitivity Assay (LTSA), PATX176; assay type: cell-based; details: 72 hours
Description: as §6, §7

PATX102 tissue slices = assay: Live Tissue Sensitivity Assay (LTSA), PATX102; assay type: cell-based; details: 72 hours
Description: as §6, §7

PATX141 tissue slices = assay: Live Tissue Sensitivity Assay (LTSA), PATX141; assay type: cell-based; details: 72 hours
Description: as §6, §7

PATX118 tissue slices = assay: Live Tissue Sensitivity Assay (LTSA), PATX118; assay type: cell-based; details: 72 hours
Description: as §6, §7

[5] = gemcitabine 0.5, 1.0, 5.0 μM, LHRH-curcumin 10, 20 μM, 5 days
[6] = 24 h, curcumin, LHRH-curcumin 50 uM and 100 uM alone, gemcitabine alone
[7] = curcumin, LHRH-curcumin 50 uM and 100 uM alone, gemcitabine alone
[8] = high doses: gemcitabine 100 mg/kg once a week, LHRH-curcumin 40 mg/kg twice a week
[9] = low doses: gemcitabine 50 mg/kg once a week, LHRH-curcumin 20 mg/kg twice a week
[10] = 24 h, 50 uM in the presence of gemcitabine (5 uM)
[11] = 72 h, LHRH-curcumin 10 uM and 20 uM in the presence of gemcitabine (5 uM and 10 uM)

## Nc1ccn([C@@H]2O[C@H](CO)[C@@H](O)C2(F)F)c(=O)n1 [gemcitabine, 2′,2′-difluoro 2′deoxycytidine, reference compound]
Panc-1 cells spheroids; [5]
  size of the spheroids: decrease the size of the spheroids
AsPC-1 spheroids
  size of the spheroids: decrease the size of the spheroids
[1]; [6]
  XIAP and c-IAP2 protein levels: doesn't affect XIAP and c-IAP2 levels
[1]; curcumin
  apoptosis marker cleaved PARP: no cleaved PARP was detected
[2]; [6]
  XIAP and c-IAP2 protein levels: doesn't affect XIAP and c-IAP2 levels
[2]; curcumin
  apoptosis marker cleaved PARP: no cleaved PARP was detected
[3]; [7]
  XIAP and c-IAP2 protein levels: doesn't affect XIAP and c-IAP2 levels
[3]; curcumin
  apoptosis marker cleaved PARP: Low levels of cleaved PARP was detected
[4]; [8]
  body weight or body condition: does not negatively impact body weight or body condition
[4]; [9]
  body weight or body condition: does not negatively impact body weight or body condition
PATX113 tissue slices; Gem 10 μM
  tissue slice viability: 82.19
PATX193 tissue slices; Gem 10 μM
  tissue slice viability: 92.70
PATX112 tissue slices; Gem 10 μM
  tissue slice viability: 91.71
PATX176 tissue slices; Gem 10 μM
  tissue slice viability: 88.23
PATX102 tissue slices; Gem 10 μM
  tissue slice viability: 99.65
PATX141 tissue slices; Gem 10 μM
  tissue slice viability: 105.35
PATX118 tissue slices; Gem 10 μM
  tissue slice viability: 97.56

## COc1cc(/C=C/C(=O)CC(=O)/C=C/c2ccc(OC(=O)CCCC(=O)NCCCC[C@@H](NC(=O)[C@H](Cc3ccc(O)cc3)NC(=O)[C@H](CO)NC(=O)[C@H](Cc3c[nH]c4ccccc34)NC(=O)[C@H](Cc3c[nH]cn3)NC(=O)[C@@H]3CCC(=O)N3)C(=O)N[C@@H](CC(C)C)C(=O)N[C@@H](CCCNC(=N)N)C(=O)N3CCC[C@H]3C(=O)NCC(N)=O)c(OC)c2)ccc1O [LHRH-curcumin, [DLys6]-LHRH-Curcumin]
Panc-1 cells spheroids; 3D culture, 10, 20 and 30 μM, 120 h
  effectiveness on spheroids growth versus curcumin: more effective than curcumin
Panc-1 cells spheroids; 10, 20 and 30 μM, 120 h post-treatment
  size of the spheroids: significantly decreased the size of the spheroids formed by Panc-1 cells in a dose-dependent manner
Panc-1 cells spheroids; LHRH 30 μM, LHRH-curcumin 30 μM
  spheroids growth: superior to that of LHRH
Panc-1 cells spheroids; [5]
  size of the spheroids: decrease the size of the spheroids
AsPC-1 spheroids
  size of the spheroids: decrease the size of the spheroids
[1]; [10]
  XIAP and c-IAP2 protein levels: down-regulated
[1]; [6]
  XIAP and c-IAP2 protein levels: down-regulated
[1]; curcumin
  apoptosis marker cleaved PARP: initiate apoptosis as illustrated by the presence of cleaved PARP
[1]; [11]
  XIAP and c-IAP2 protein levels: down-regulated
[2]; [10]
  XIAP and c-IAP2 protein levels: down-regulated
[2]; [6]
  XIAP and c-IAP2 protein levels: down-regulated
[2]; curcumin
  apoptosis marker cleaved PARP: initiate apoptosis as illustrated by the presence of cleaved PARP
[2]; [11]
  XIAP and c-IAP2 protein levels: down-regulated
[3]; 50 uM in the presence of gemcitabine (5 uM)
  XIAP and c-IAP2 protein levels: down-regulated
[3]; [7]
  XIAP and c-IAP2 protein levels: down-regulated
[3]; curcumin
  apoptosis marker cleaved PARP: initiate apoptosis as illustrated by the presence of cleaved PARP
[4]; [8]
  body weight or body condition: does not negatively impact body weight or body condition
[4]; [9]
  body weight or body condition: does not negatively impact body weight or body condition
PATX113 tissue slices; single agent
  Sensitivity To LHRH-C: Sensitive (The tissue was defined as sensitive to the treatment if both p<0.05 and at least 30% of tissue slice viability on average was inhibited)
PATX193 tissue slices; single agent
  Sensitivity To LHRH-C: Sensitive (The tissue was defined as sensitive to the treatment if both p<0.05 and at least 30% of tissue slice viability on average was inhibited)
PATX112 tissue slices; single agent
  Sensitivity To LHRH-C: Sensitive (The tissue was defined as sensitive to the treatment if both p<0.05 and at least 30% of tissue slice viability on average was inhibited)
PATX176 tissue slices; single agent
  Sensitivity To LHRH-C: Resistant
PATX102 tissue slices; single agent
  Sensitivity To LHRH-C: Resistant
PATX141 tissue slices; single agent
  Sensitivity To LHRH-C: Resistant
PATX118 tissue slices; single agent
  Sensitivity To LHRH-C: Resistant
